Legend:
Ehrlich cancer cells [1] = assay: PGE in Ehrlich tumour tissue and tumour proliferation (i.p.); type: in vivo, female C57BL/6 mouse; conditions: 100 mg/kg i.p. every other day, 14th day
Experimental: Ehrlich cancer cells were transplanted subcutaneously to groups of female C57BL/6 mouse after 9 weeks of birth at a rate of 1×10^6 and while feeding the mice, the present substance, Specimen No. 7, was intraperitoneally administered to the mice every other day from the next day of the transplantation at a rate of 100 mg/kg. On 14th day of the transplantation, the mice were sacrificed with ether to extirpate the tumor tissue. After homogenizing the tumour tissue finely cut by scissors with the addition of 7 ml of methanol per gram of the tumour tissue at a temperature of 0° C., the homogenate was filtered with filter paper to obtain a filtrate. After adding 2 times by volume of chloroform to the filtrate, the mixture was well mixed and left for 30 min at 4° C. Then, the cooled mixture was subjected to the same procedures as in Example 11 to determine the content of PGE in the tumour tissue. The content of PGE in the tumour tissue was larger in the animal transplanted with the cancer cells and administered with the present substance than in the control transplanted with the same cancer cells but not administered with the present substance. This face gives an information concerning the participation of the present substance in the metabolism of PGs.

Ehrlich's cancer cell = assay: PGE in Ehrlich tumour and tumour weight (oral); type: in vivo, female C57BL/6 mouse; conditions: 1 g/kg/day oral
Experimental: Ehrlich's cancer cell were transplanted subcutaneously to groups of female C57BL/6 mouse after 8 weeks of her birth and while feeding the mice, the present substance, Specimen No. 7, was orally administered to each mouse every day at a rate of 1 g/kg/day. On 7th or 14th day of the transplantation, the mice were sacrificed with ether to extirpated the tumour. The tumour was treated by the same procedures as in Example 11 to determine the content of PGE therein. The concentration of PGE in the tumour was larger in the animal transplanted with the cells and administered with the present substance than in the control to which the same cells were transplanted but the present substance was not administered. Further it is observed that the content of PGE decreased in both groups as the time passed, and the rate of decrease was smaller in the group transplanted and administered than in the control group transplanted but not administered. These facts give the information that the present substance participates to the metabolism of PGE.

[2] = system: lymphocytes from the spleen of a BALB/C mouse; assay: PGs metabolism of 3H-arachidonic acid taken into lymphocytes; type: cell-based; design: key: -: no change was observed; ±: change was slightly observed; +: change was clearly observed; conditions: 500 μg/ml, 37° C., 60 min
Experimental: After adjusting the lymphocytes taken from the spleen of a BALB/C mouse to a concentration of 1×10^7 cells/ml, 2 μCi of ^3 H-arachidonic acid was added and the mixture was incubated at a temperature of 37° C. for 90 min. The incubated lymphocytes were washed three times with the culture medium. After again ajusting the cells to a concentration of 1×10^7 cells per ml, the culture were poured into four siliconized test tubes in an amount of 2 ml/tube. Two test tubes were used as control, and into each of the remaining two test tubes, 500 μg of the present substance, in this Example, Specimen No. 7 was added, and then the four test tubes were incubated at 37° C. for 60 min. After incubation, the test tubes were centrifugated at 0° C. for 5 min. at 1,200 rpm.
The thus obtained pellets of cells were taken into a vial containing 2 ml of the culture medium and after adding 5 ml of petroleum ether, the vial was shaken and the ether layer was removed, the remaining aqueous layer being adjusted to pH of 3.5 by aqueous 0.5 N hydrochloric acid solution.
The aqueous acidic solution was extracted three times with each 5 ml of ether, and the ether extract was dried to solid. The solid material was subjected to esterification by a solution of diazomethane. The esterified reaction mixture was subjected to thin-layer chromatography and was developed with a 90:50:20:100 (by volume) mixed solvent of ethyl acetate:iso-octane:acetic acid:water. The identification of the thus appeared spots on the chromatogram was carried out by using the following authentic specimens of PGD2, PGE2, PGF2-α and 6-keto-PGF1-α. The silicagel layer of the separated chlomatogram was scraped out and dissolved into a liquid for the liquid scintillator to be counted. From the change of the counts the change of PGS was determined.

Ehrlich cancer cells [3] = assay: PGE in cancer cells and ascites of mouse transplanted with Ehrlich cancer cells; type: in vivo, female ICR-JCL mouse; conditions: 200 mg/kg/day i.p., 5 days
Experimental: To groups of female ICR-JCL mouse after 5 weeks of her birth, Ehrlich cancer cells were intraperitoneally transplanted at a rate of 1×10^6 cells/animal and one of the present substances, Specimen No. 7 was administered intraperitoneally to the mice every day from the next day of transplantation for 5 days at a rate of 200 mg/kg/day. The mice were sacrificed with ether on the 6th day of transplantation, and the ascites were collected. After adding tetrasodium ethylenediamminetetraacetate with 1% by weight of aspirin into the ascites, it was centrifugated for 10 min at 1500 rpm and a temperature of 4° C. to separate the cancer cells and the supernatant liquid. The supernatant liquid was further centrifugated at 4° C. and 3000 rpm for 15 min. The separated cancer cells was washed with Hank's solution, and was subjected to centrifugation 5 times at 800 rpm for each 5 min to remove impurities such as erythrocytes, etc. The thus purified cancer cells of 1×10^8 in number were homogenized at 0° C. after addition of 7 ml of methanol, and the homogenate was filtered with filter paper. After adding 14 ml of chloroform to the filtrate and mixing, the mixture was left for 30 min at a temperature of 4° C. […] The content of PGE in the solution and in the supernatant liquid of the ascites was determined by ^3 H-ProstaglandinE Radioimmunoassay Kit. […]

Adenocarcinoma 755 = assay: PGE in tumour of adenocarcinoma 755 and its proliferation; type: in vivo, female C57BL/6 mouse; conditions: 1 g/kg/day oral
Experimental: Tumour cells of Adenocarcinoma 755 were transplanted subcutaneously to groups of female C57BL/6 mouse of after 8 weeks of birth and while feeding the mice, the present substance, Specimen No. 7, was orally administered every day from the next day of transplantation at a rate of 1 g/kg/day. The mice were sacrificed with ether on 7th or 14th day of transplantation to extirpate the tumour. The thus extirpated tumour was treated by the same procedures as in Example 11 to determine the content of PGE in the tumour.

O=C(O)c1ccc(NC2OC[C@@H](O)[C@H](O)[C@H]2O)cc1 (stereo partly drawn) [Specimen No. 7, Sodium p-aminobenzoate-N--D-xyloside]
Weight of tumour tissue (Ehrlich cancer cells [1]; control 1.30): 0.75 g
Content of PGE in the tumour tissue (Ehrlich cancer cells [1]; control 1.77): 3.98 ng/g
Weight of tumour (Ehrlich's cancer cell; 7th day, control 0.09): 0.08 g
Content of PGE in the tumour (Ehrlich's cancer cell; 7th day, control 2.59): 2.80 ng/g
Weight of tumour (Ehrlich's cancer cell; 14th day, control 0.84): 0.67 g
Content of PGE in the tumour (Ehrlich's cancer cell; 14th day, control 1.16): 1.65 ng/g
Change of 6-keto-PGF1-α [2]: ±
Change of PGD2 [2]: +
Change of PGE2 [2]: +
Change of PGF2-α [2]: ±
Content of PGE in supernatant liquid of ascites (Ehrlich cancer cells [3]; control 0.26): 0.12 ng
Content of PGE in 10^8 cells (Ehrlich cancer cells [3]; control 2.36): 3.06 ng
Content of PGE in tumour (Adenocarcinoma 755; 7th day, control 0.67): 2.83 ng/g
Weight of tumour (Adenocarcinoma 755; 7th day, control 1.34): 1.04 g
Content of PGE in tumour (Adenocarcinoma 755; 14th day, control 0.34): 1.15 ng/g
Weight of tumour (Adenocarcinoma 755; 14th day, control 4.01): 3.10 g

Reference: US4440757A, “Pharmaceutical composition comprising derivative of aminobenzoic acid for regulating prostaglandin” (priority 1978, dated 1984)
